Reference: patent US20250064941A1, “SIGLEC LIGANDS, CONJUGATES, AND METHODS OF USE THEREOF” (Osprey Biopharmaceuticals, Inc., priority 2023, published 2025)

Tests used:
[1] = molecular target: T1, mouse Siglec-2-Fc-Avi (CD22) (Mus musculus, UniProt P35329); experiment: SPR binding affinity to mouse CD22; conditions: steady-state analysis
T1 construct: made in house
T1 sequence (P35329 22-708 limits assumed): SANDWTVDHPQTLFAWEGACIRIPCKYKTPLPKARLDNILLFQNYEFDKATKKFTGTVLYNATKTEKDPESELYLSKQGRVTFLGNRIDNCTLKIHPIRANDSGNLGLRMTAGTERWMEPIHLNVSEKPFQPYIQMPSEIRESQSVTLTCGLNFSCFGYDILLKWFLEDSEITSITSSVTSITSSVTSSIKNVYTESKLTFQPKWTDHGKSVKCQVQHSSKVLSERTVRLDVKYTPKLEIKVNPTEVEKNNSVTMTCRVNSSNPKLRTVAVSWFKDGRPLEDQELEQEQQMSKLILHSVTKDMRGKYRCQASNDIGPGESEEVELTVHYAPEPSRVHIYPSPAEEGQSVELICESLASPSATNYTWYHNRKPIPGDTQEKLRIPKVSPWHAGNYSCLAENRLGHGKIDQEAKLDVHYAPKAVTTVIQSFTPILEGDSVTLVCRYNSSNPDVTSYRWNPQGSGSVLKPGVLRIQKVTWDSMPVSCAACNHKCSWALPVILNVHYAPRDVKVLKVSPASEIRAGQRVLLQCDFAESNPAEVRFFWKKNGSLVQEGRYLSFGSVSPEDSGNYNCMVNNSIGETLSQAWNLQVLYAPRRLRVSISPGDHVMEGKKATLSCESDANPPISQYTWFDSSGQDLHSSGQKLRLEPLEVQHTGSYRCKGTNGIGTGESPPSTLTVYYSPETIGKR
Procedure, shortened: (§1)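 Biotinylated CD22 desialylated with SialoExo (4 h, 37° C) before capture on streptavidin chip. Running buffer 10 mM HEPES, 150 mM NaCl, 0.05% Tween-20, pH 7.5, 1% DMSO, with DMSO solvent correction; 120 s dissociation. Compound affinities from steady-state analysis.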

[2] = molecular target: T2, human Siglec-2/CD22 protein (Homo sapiens, UniProt P20273); experiment: SPR binding affinity to human CD22; conditions: steady-state analysis
T2 construct: purchased Acro Biosystems SI2-H82E3
T2 sequence (P20273 20-847): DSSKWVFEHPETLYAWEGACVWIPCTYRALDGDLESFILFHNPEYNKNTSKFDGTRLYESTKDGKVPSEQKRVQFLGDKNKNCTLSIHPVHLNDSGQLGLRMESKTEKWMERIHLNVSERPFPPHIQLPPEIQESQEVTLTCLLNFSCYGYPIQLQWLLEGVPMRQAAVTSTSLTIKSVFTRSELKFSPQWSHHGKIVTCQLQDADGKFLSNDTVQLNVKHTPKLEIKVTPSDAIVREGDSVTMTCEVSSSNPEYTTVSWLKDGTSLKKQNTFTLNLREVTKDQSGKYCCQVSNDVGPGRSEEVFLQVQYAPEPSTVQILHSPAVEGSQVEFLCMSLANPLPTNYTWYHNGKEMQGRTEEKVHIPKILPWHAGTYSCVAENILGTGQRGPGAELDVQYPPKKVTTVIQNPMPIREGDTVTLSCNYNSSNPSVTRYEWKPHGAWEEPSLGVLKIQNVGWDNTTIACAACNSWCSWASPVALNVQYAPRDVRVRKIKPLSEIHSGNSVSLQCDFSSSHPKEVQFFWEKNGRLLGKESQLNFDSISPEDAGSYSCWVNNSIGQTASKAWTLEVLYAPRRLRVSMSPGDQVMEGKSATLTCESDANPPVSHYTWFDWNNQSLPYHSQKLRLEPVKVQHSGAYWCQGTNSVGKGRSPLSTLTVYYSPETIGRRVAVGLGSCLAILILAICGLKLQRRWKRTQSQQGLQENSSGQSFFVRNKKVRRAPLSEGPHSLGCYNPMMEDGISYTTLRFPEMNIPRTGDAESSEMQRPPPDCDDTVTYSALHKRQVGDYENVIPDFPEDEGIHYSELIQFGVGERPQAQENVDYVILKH
Procedure, shortened: as §1

cynomolgus Siglec-2/CD22 = cynomolgus Siglec-2/CD22 (Macaca fascicularis, UniProt A0A2K5WCZ6); experiment: biochemical; format: binding; conditions: SPR, steady-state analysis; read-out: Affinity cyno CD22
cynomolgus Siglec-2/CD22, sequence (A0A2K5WCZ6 entry or part of it): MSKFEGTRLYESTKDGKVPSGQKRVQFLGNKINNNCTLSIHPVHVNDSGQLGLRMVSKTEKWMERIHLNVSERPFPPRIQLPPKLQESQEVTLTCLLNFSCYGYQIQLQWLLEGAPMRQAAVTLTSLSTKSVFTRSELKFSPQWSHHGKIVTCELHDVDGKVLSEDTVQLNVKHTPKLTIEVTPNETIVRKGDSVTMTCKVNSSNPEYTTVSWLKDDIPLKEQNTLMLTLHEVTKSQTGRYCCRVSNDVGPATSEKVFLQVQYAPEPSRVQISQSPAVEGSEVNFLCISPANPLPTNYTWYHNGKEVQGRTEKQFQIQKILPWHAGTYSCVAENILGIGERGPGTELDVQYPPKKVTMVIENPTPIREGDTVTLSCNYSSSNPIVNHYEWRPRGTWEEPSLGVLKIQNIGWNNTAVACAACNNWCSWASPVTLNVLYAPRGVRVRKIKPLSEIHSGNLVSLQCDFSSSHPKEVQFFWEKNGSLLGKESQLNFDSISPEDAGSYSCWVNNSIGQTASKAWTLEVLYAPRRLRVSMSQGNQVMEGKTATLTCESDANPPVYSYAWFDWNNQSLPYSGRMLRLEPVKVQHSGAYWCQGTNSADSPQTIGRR
Procedure, shortened: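 SPR with desialylated (SialoExo, 4 h, 37° C.) cynomolgus CD22 amine-coupled to a CM5 chip. Running buffer 10 mM HEPES, 150 mM NaCl, 0.05% Tween-20, pH 7.5, 1% DMSO, with solvent correction; 120 s dissociation. Affinities from steady-state analysis.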

Row | SMILES | Kd [1] [nM] | Kd [2] [nM] | Kd (cynomolgus Siglec-2/CD22) [nM]
1 | CC(=O)NCCOCCOCCOCCOCCC(=O)NCCCCCCO[C@]1(C(=O)O)C[C@H](O)[C@@H](NC(=O)CO)[C@H]([C@H](O)[C@H](O)CNC(=O)Cc2ccc(Cl)cc2)O1 [Cpd. 244, (2R,4S,5R,6R)-6-((1R,2R)-3-(2-(4-chlorophenyl)acetamido)-1,2-dihydroxypropyl)-2-((2,18-dioxo-6,9,12,15-tetraoxa-3,19-diazapentacosan-25-yl)oxy)-4-hydroxy-5-(2-hydroxyacetamido) tetrahydro-2H-pyran-2-carboxylic acid] | < 1000 | < 1000 | < 1000
2 | CC(=O)NCCOCCOCCOCCOCc1cn(CCCCCCO[C@]2(C(=O)O)C[C@H](O)[C@@H](NC(=O)CO)[C@H]([C@H](O)[C@H](O)CNC(=O)Cc3ccc(Cl)cc3)O2)nn1 [Cpd. 246, (2R,4S,5R,6R)-6-((1R,2R)-3-(2-(4-chlorophenyl)acetamido)-1,2-dihydroxypropyl)-4-hydroxy-5-(2-hydroxyacetamido)-2-((6-(4-(15-oxo-2,5,8,11-tetraoxa-14-azahexadecyl)-1H-1,2,3-triazol-1-yl)hexyl)oxy) tetrahydro-2H-pyran-2-carboxylic acid] | < 1000 | < 1000 | < 1000
3 | CC(=O)NCCOCCOCCOCCOCCNc1c(NCCOCCOCCO[C@]2(C(=O)O)C[C@H](O)[C@@H](NC(=O)CO)[C@H]([C@H](O)[C@H](O)CNC(=O)Cc3ccc(Cl)cc3)O2)c(=O)c1=O [Cpd. 247, (2R,4S,5R,6R)-6-((1R,2R)-3-(2-(4-chlorophenyl)acetamido)-1,2-dihydroxypropyl)-2-(2-(2-(2-((3,4-dioxo-2-((2-oxo-6,9,12,15-tetraoxa-3-azaheptadecan-17-yl)amino)cyclobut-1-en-1-yl)amino)ethoxy)ethoxy)ethoxy)-4-hydroxy-5-(2-hydroxyacetamido) tetrahydro-2H-pyran-2-carboxylic acid] | 1000 to 10000 | 1000 to 10000 | 1000 to 10000
4 | CC(=O)NCCOCCOCCOCCOCCC(=O)NCCCCCCO[C@]1(C(=O)O)C[C@H](O)[C@@H](NC(=O)CO)[C@H]([C@H](O)[C@H](O)CNC(=O)Cc2ccc(C(F)F)cc2)O1 [Cpd. 256, (2R,4S,5R,6R)-6-((1R,2R)-3-(2-(4-(difluoromethyl)phenyl)acetamido)-1,2-dihydroxypropyl)-2-((2,18-dioxo-6,9,12,15-tetraoxa-3,19-diazapentacosan-25-yl)oxy)-4-hydroxy-5-(2-hydroxyacetamido) tetrahydro-2H-pyran-2-carboxylic acid] | 1000 to 10000 | < 1000 | < 1000
5 | CC(=O)NCCOCCOCCOCCOCCNC(=O)CCCCCCO[C@]1(C(=O)O)C[C@H](O)[C@@H](NC(=O)CO)[C@H]([C@H](O)[C@H](O)CNC(=O)Cc2ccc(C(F)F)cc2)O1 [Cpd. 257, (2R,4S,5R,6R)-6-((1R,2R)-3-(2-(4-(difluoromethyl)phenyl)acetamido)-1,2-dihydroxypropyl)-2-((2,19-dioxo-6,9,12,15-tetraoxa-3,18-diazapentacosan-25-yl)oxy)-4-hydroxy-5-(2-hydroxyacetamido)tetrahydro-2H-pyran-2-carboxylic acid] | 1000 to 10000 | < 1000 | < 1000
6 | CC(=O)NCCOCCOCCOCCOCCNc1c(NCCCCCCO[C@]2(C(=O)O)C[C@H](O)[C@@H](NC(=O)CO)[C@H]([C@H](O)[C@H](O)CNC(=O)Cc3ccc(C(F)F)cc3)O2)c(=O)c1=O [Cpd. 258, (2R,4S,5R,6R)-6-((1R,2R)-3-(2-(4-(difluoromethyl)phenyl)acetamido)-1,2-dihydroxypropyl)-2-((6-((3,4-dioxo-2-((2-oxo-6,9,12,15-tetraoxa-3-azaheptadecan-17-yl)amino)cyclobut-1-en-1-yl)amino)hexyl)oxy)-4-hydroxy-5-(2-hydroxyacetamido)tetrahydro-2H-pyran-2-carboxylic acid] | < 1000 | < 1000 | < 1000
7 | CC(=O)NCCOCCOCCOCCOCc1cn(CCOCCOCCO[C@]2(C(=O)O)C[C@H](O)[C@@H](NC(=O)CO)[C@H]([C@H](O)[C@H](O)CNC(=O)Cc3ccc(Cl)cc3)O2)nn1 [Cpd. 260, (2R,4S,5R,6R)-6-((1R,2R)-3-(2-(4-chlorophenyl)acetamido)-1,2-dihydroxypropyl)-4-hydroxy-5-(2-hydroxyacetamido)-2-(2-(2-(2-(4-(15-oxo-2,5,8,11-tetraoxa-14-azahexadecyl)-1H-1,2,3-triazol-1-yl)ethoxy)ethoxy)ethoxy)tetrahydro-2H-pyran-2-carboxylic acid] | 1000 to 10000 | 1000 to 10000 | 1000 to 10000
8 | CC(=O)NCCOCCOCCOCCOCCNc1c(NCCCCCCO[C@]2(C(=O)O)C[C@H](O)[C@@H](NC(=O)CO)[C@H]([C@H](O)[C@H](O)CNC(=O)Cc3ccc(-c4nnn[nH]4)cc3)O2)c(=O)c1=O [Cpd. 265, (2R,4S,5R,6R)-6-((1R,2R)-3-(2-(4-(1H-tetrazol-5-yl)phenyl)acetamido)-1,2-dihydroxypropyl)-2-((6-((3,4-dioxo-2-((2-oxo-6,9,12,15-tetraoxa-3-azaheptadecan-17-yl)amino)cyclobut-1-en-1-yl)amino)hexyl)oxy)-4-hydroxy-5-(2-hydroxyacetamido)tetrahydro-2H-pyran-2-carboxylic acid] | < 1000 | < 1000 | < 1000
9 | CC(=O)NCCOCCOCCOCCOCCNC(=O)CCCCCCO[C@]1(C(=O)O)C[C@H](O)[C@@H](NC(=O)CO)[C@H]([C@H](O)[C@H](O)CNC(=O)Cc2ccc(-c3nnn[nH]3)cc2)O1 [Cpd. 266, (2R,4S,5R,6R)-6-((1R,2R)-3-(2-(4-(1H-tetrazol-5-yl)phenyl)acetamido)-1,2-dihydroxypropyl)-2-((2,19-dioxo-6,9,12,15-tetraoxa-3,18-diazapentacosan-25-yl)oxy)-4-hydroxy-5-(2-hydroxyacetamido) tetrahydro-2H-pyran-2-carboxylic acid] | 1000 to 10000 | < 1000 | < 1000
10 | C#CCCCCCCO[C@]1(C(=O)O)C[C@H](O)[C@@H](NC(=O)CO)[C@H]([C@H](O)[C@H](O)CNC(=O)c2ccc(Cl)cc2)O1 [Cpd. 267, (2R,4S,5R,6R)-6-((1R,2R)-3-(4-chlorobenzamido)-1,2-dihydroxypropyl)-4-hydroxy-5-(2-hydroxyacetamido)-2-(oct-7-yn-1-yloxy) tetrahydro-2H-pyran-2-carboxylic acid] | 1000 to 10000 | < 1000 | < 1000
